{"source": "patent US20260085081A1", "about": "“PHOSPHATIDYLAMINE COMPOUNDS INCLUDING A PLURALITY OF TERTIARY AMINO GROUP STRUCTURES AND COMPOSITIONS THEREOF” (PEKING UNIVERSITY, priority 2022, published 2026)", "key": {"white adipocyte": {"tested_on": "white adipocyte", "assay": "White adipocyte administration, expression relative to SM102", "format": "cell-based", "details": "ratio of expression PL/SM102", "from_the_text": "(§1) Finally, the expression levels of lipid nanoparticles with a plurality of tertiary amine groups from the embodiments of the present disclosure after intramuscular injection, white adipocyte administration, and intraperitoneal injection are summarized, and compared with lipid nanoparticles prepared from commercially available cationic lipids MC3 and SM102. […] However, the expression rates of the phosphatidylamine lipids with a plurality of tertiary amine groups from embodiments of the present disclosure are higher than that of SM102."}, "[1]": {"tested_on": "human hepatocellular carcinoma HepG2 cells", "assay": "Transfection efficiency of lipid nanoparticles in HepG2 cells", "format": "cell-based", "procedure": "(§2) Determination process included: preparing a 96-well plate, inoculating cells (4000 cells/well), adding 100 μL of medium, incubating at 37° C. overnight; after 24 h, adding lipid nanoparticles diluted with medium (achieving the final concentration of RNA of 10 µg/mL), incubating at 37° C. for 24 h, and then adding 50 μL of specialized luciferase substrate to each well, followed by detection using by a microplate reader (chemiluminescence).\nFIG. 2A and FIG. 2B illustrate encapsulation efficiency of lipid nanoparticles and cell transfection efficiency according to some embodiments of the present disclosure. FIG. 2A is the encapsulation efficiency of lipid nanoparticles in the DOPE/DSPC groups, and FIG. 2B is the transfection efficiency in HepG2 cells. PL1, PL10, and PL12 from the DOPE group, and PL11 and PL12 from the DSPC group are selected to further explore the transfection efficiency in human hepatocellular carcinoma HepG2 cells. LNP is first prepared using microfluidic approach (Example 44) and the encapsulation efficiency of LNP is measured (Example 46), and the results are shown in FIG. 2A. […] PL10 has the best effect, which is 400-fold of that of LNPs in the control group MC3. The experiment also further illustrates that PL lipids have excellent cell transfection efficiency and stable effect in different cell lines."}, "[2]": {"tested_on": "Fluc-mRNA (luciferase expression)", "assay": "In vivo transfection efficiency of Fluc-mRNA lipid nanoparticles after intramuscular injection", "design": "species or system mice", "details": "for expression in vivo compared with control MC3 / in vivo transfection (expression, FIG. 5): 3 μg Fluc-mRNA/mouse; for Intramuscular injection (PL/MC3) expression strength level: ratio of expression PL/MC3; for in vivo transfection (expression, FIG. 5): weight ratio lipid nanoparticle/RNA 10:1, DOPE or DSPC group", "procedure": "6 h after intramuscular injection of mRNA LNPs, mice were injected intraperitoneally with 0.2 mL […] (20 mg/mL PBS solution). After 10 min, mice were anesthetized with isoflurane in oxygen in a ventilated anesthesia room and imaged with an imaging system (IVIS, PerkinElmer), and luminescence was quantified using Living Image software (PerkinElmer)."}, "adipose tissue": {"tested_on": "adipose tissue", "assay": "Intraperitoneal injection of Fluc-mRNA LNPs, expression and distribution", "format": "in vivo, mice", "details": "ratio of expression PL/SM102", "procedure": "FIG. 10 illustrates the effect of Fluc-mRNA LNPs composed of different structural cationic lipids on the mRNA delivery efficiency after intraperitoneal administration according to some embodiments of the present disclosure. Targeting and expression of PL lipids on adipose tissue after intraperitoneal administration is also evaluated. […] That is to say, the PL lipid structure with the plurality of tertiary amino group structures may enhance the selective targeting of visceral adipocytes. […]\nas §1"}, "NIH-3T3 cells": {"tested_on": "NIH-3T3 cells", "assay": "Transfection efficiency of lipid nanoparticles in NIH-3T3 cells", "format": "cell-based, murine", "procedure": "The prepared cationic compounds (PL1, PL4, PL8, PL10, PL11, PL12, PL13, PL14, PL17, PL18, PL23, PL24, PL26, PL27, PL28, PL29, PL30, PL31, PL32, PL33, PL36, PL38, PL41, PL44, PL45, PL53, PL54, PL55, PL56, PL57, PL58, PL59, PL60, PL61, PL78, PL79, PL93, PL94, PL95, PL96, PL97, PL103), DOPE/DSPC, cholesterol, and DMG-PEG2000 are prepared with ethanol in a molar ratio of 35:16:46.5:2.5 to form the ethanol phase, and RNA is formulated into the aqueous phase with 50 mM citrate buffer solution at pH=4. Lipid nanoparticles are obtained by microfluidic mixing at aqueous phase:ethanol phase=3:1 (v/v), followed by dialysis purification in PBS at pH 7.4 overnight to remove ethanol.\nas §2\nFIG. 1A and FIG. 1B illustrate transfection of lipid nanoparticles of a DOPE group and a DSPC group in NIH3T3 cells according to some embodiments of the present disclosure. Specifically, for compounds PL1, PL4, PL6, PL8, PL10, PL11, PL12, lipid nanoparticles are prepared by DOPE and DSPC, respectively, according to an […] (Example 44). The transfection efficiency of these two groups of lipid nanoparticles in cells is first evaluated, and murine fibroblasts NIH-3T3 are selected for incubation (Example 47), and the results are shown in FIG. 1A and FIG. 1B. […] PL10, PL11, and PL12 all include two tertiary amino groups."}, "[3]": {"assay": "Summary of the strongest expressions over the administration routes", "details": "strongest level of the three administrations", "from_the_text": "as §1"}, "[4]": {"assay": "Particle size of lipid nanoparticles (dynamic light scattering)", "format": "physicochemical", "procedure": "The particle size of the lipid nanoparticles and the distribution (size, PDI) were determined by Malvern Zetasizer Nano ZS laser particle sizer according to dynamic light scattering (DLS). The samples were diluted 100-fold with PBS before measurement, and 1 mL was taken for measurement. The measurement was repeated three times in parallel for each sample."}, "[5]": {"assay": "Encapsulation efficiency of lipid nanoparticles (RiboGreen assay)", "format": "physicochemical", "procedure": "The total RNA concentration and the encapsulation efficiency were determined using a RiboGreen assay. Determination process included: taking a black 96-well plate, adding 50 μL TE buffer/Triton X to A1-A8/B1-B8, respectively (A1-A6/B1-B6 for the standard curve, A7-8/B7-8 for samples), then adding the RNA TE (Tris-EDTA) dilution solutions (2 ng/μL, 1 ng/μL, 0.5 ng/μL, 0.25 ng/μL, 0.125 ng/μL, 0 ng/μL) to the above wells A1-A6/B1-B6 as the standard curve, adding 50 μL nanoparticle dilution solution to A7-A8/B7-B8, and shaking at 37° C. for 15 min, subsequently, adding 100 μL of RiboGreen solution (diluted 400-fold with TE buffer) to each well, and shaking for 3-5 min, and detecting the fluorescence intensity of each well by a microplate reader at an excitation wavelength of 485 nm and an emission wavelength of 515 nm."}, "most cells and tissues": {"tested_on": "most cells and tissues", "details": "reported; cited from earlier work"}, "joint cavity": {"tested_on": "joint cavity", "assay": "Intra-articular injection of Fluc-mRNA LNPs, luciferase expression in the joint cavity (IVIS)", "format": "in vivo, ICR mice", "protocol": "Images of luciferase expression in the joint cavity are detected with an IVIS imaging system at 6 h, 12 h, 24 h, 48 h, 72 h, and 96 h after intra-articular injection of 2 μg of Fluc-mRNA LNPs (PL10, PL14, and PL17, n=3)."}}, "data": [{"smiles": "CCCCC/C=C\\C/C=C\\CCCCCCCCOP(=O)(NCCN(CCCCCCCCCCCC)CCCN(C)C)OCCCCCCCC/C=C\\C/C=C\\CCCCC", "note": "[PL10]", "values": [{"measurement": "White adipocyte administration (PL/SM102) expression strength level", "setting": "white adipocyte", "value": "C (C: ≥0.1 and <1)"}, {"measurement": "transfection efficiency relative to LNPs of control group MC3", "setting": "[1]", "value": 400, "unit": "fold"}, {"measurement": "expression in vivo compared with control MC3", "setting": "[2]; DOPE group, weight ratio 10:1", "value": "better than that of control MC3"}, {"measurement": "Intramuscular injection (PL/MC3) expression strength level", "setting": "[2]", "value": "A (A: ≥2)"}, {"measurement": "in vivo fluorescence signal", "setting": "[2]; weight ratio cationic lipid/RNA 15:1, 3 μg Fluc-mRNA", "value": "no fluorescence signal"}, {"measurement": "in vivo transfection (expression, FIG. 5)", "setting": "[2]", "value": "expressed"}, {"measurement": "in vivo expression relative to MC3 LNP", "setting": "[2]; weight ratio lipid nanoparticles/RNA 5:1, 3 μg Fluc-mRNA", "value": 3, "unit": "fold"}, {"measurement": "in vivo expression relative to MC3 LNP", "setting": "[2]; weight ratio lipid nanoparticles/RNA 10:1, 3 μg Fluc-mRNA", "value": 10, "unit": "fold"}, {"measurement": "Intraperitoneal injection (PL/SM102) expression strength level", "setting": "adipose tissue", "value": "D (D: <0.1)"}, {"measurement": "transfection efficiency relative to MC3 LNP", "setting": "NIH-3T3 cells; DOPE group LNP", "value": 22, "unit": "fold"}, {"measurement": "Summary of the strongest expressions", "setting": "[3]", "value": "A (A: ≥2)"}, {"measurement": "particle size", "setting": "[4]; weight ratio lipid nanoparticle/RNA 5:1", "value": 200, "unit": "nm"}, {"measurement": "particle size", "setting": "[4]; weight ratio lipid nanoparticle/RNA 15:1", "value": 150, "unit": "nm"}, {"measurement": "encapsulation efficiency", "setting": "[5]; DOPE LNP, microfluidic preparation", "value": "around 50%"}, {"measurement": "encapsulation efficiency", "setting": "[5]; weight ratio cationic PL lipid/RNA 5:1 (lowest lipid)", "value": "more than 30%"}, {"measurement": "encapsulation efficiency", "setting": "[5]; weight ratio cationic PL lipid/RNA 15:1 (most lipid)", "value": "about 70%"}]}, {"smiles": "CCCCCCCCCCCOC(=O)CCCCCN(CCO)CCCCCCCC(=O)OC(CCCCCCCC)CCCCCCCC", "note": "[SM102]", "values": [{"measurement": "expression compared with MC3", "setting": "most cells and tissues", "value": "at least ten-fold higher than that of MC3"}]}, {"smiles": "CCCCC/C=C\\C/C=C\\CCCCCCCCOP(=O)(NCCCN1CCN(CCCN(CCCCCCCCCCCC)CCCCCCCCCCCC)CC1)OCCCCCCCC/C=C\\C/C=C\\CCCCC", "note": "[PL14]", "values": [{"measurement": "White adipocyte administration (PL/SM102) expression strength level", "setting": "white adipocyte", "value": "C (C: ≥0.1 and <1)"}, {"measurement": "expression in vivo compared with control MC3", "setting": "[2]; DOPE group, weight ratio 10:1", "value": "better than that of control MC3"}, {"measurement": "enhancement of in vivo expression with respect to control MC3", "setting": "[2]; DOPE group, weight ratio 10:1, 3 g Fluc-mRNA/mouse", "value": "an order of magnitude enhancement"}, {"measurement": "Intramuscular injection (PL/MC3) expression strength level", "setting": "[2]", "value": "A (A: ≥2)"}, {"measurement": "in vivo transfection (expression, FIG. 5)", "setting": "[2]", "value": "expressed"}, {"measurement": "Summary of the strongest expressions", "setting": "[3]", "value": "A (A: ≥2)"}, {"measurement": "expression efficiency after intra-articular injection", "setting": "joint cavity; 2 μg Fluc-mRNA LNPs, 6 h to 96 h", "value": "higher and more long-lasting expression efficiencies compared to both PL10 and PL17 LNPs"}, {"measurement": "distribution and expression outside the joint after intra-articular injection", "setting": "joint cavity; liver", "value": "distributed and expressed non-specifically in the liver"}, {"measurement": "nanoparticle particle size", "setting": "[4]; optimized formulation: decreased proportion of PEG, increased volume of aqueous phase", "value": "around 200 nm"}]}, {"smiles": "CCCCC/C=C\\C/C=C\\CCCCCCCCOP(=O)(NCCN(CCCCCCCCCC(=O)OC(CC)CCCCC)CCCN(C)C)OCCCC(=O)OCCCCCCCCCCC", "note": "(centres unmarked) [PL12]", "values": [{"measurement": "White adipocyte administration (PL/SM102) expression strength level", "setting": "white adipocyte", "value": "D (D: <0.1)"}, {"measurement": "Intramuscular injection (PL/MC3) expression strength level", "setting": "[2]", "value": "A (A: ≥2)"}, {"measurement": "in vivo transfection (expression, FIG. 5)", "setting": "[2]", "value": "expressed"}, {"measurement": "transfection efficiency relative to MC3 LNP", "setting": "NIH-3T3 cells; DOPE group LNP", "value": 7, "unit": "fold"}, {"measurement": "transfection efficiency relative to MC3 LNP", "setting": "NIH-3T3 cells; DSPC group LNP", "value": 1.5, "unit": "fold"}, {"measurement": "Summary of the strongest expressions", "setting": "[3]", "value": "A (A: ≥2)"}]}]}
